The values below come from US10076246B2, “Method and apparatus for noninvasive quantitative detection of fibrosis in normal and viable myocardium by MRI” (Oregon Health & Science University, priority 2007, dated 2018).

Data set [1] is described as follows: Ex-vivo contrast-enhanced MRI (3 Tesla, T1 inversion recovery) measurement of gadodiamide partition coefficient / relative distribution volume in postmortem myocardium samples. The data set is classed as in vitro ADME, human. Particulars: 24 hours incubation in ~3 mM gadodiamide-saline solution. The procedure:
As an example of the above-described methodology, eight samples of human myocardium were obtained postmortem and a fast spin-echo sequence (3 Tesla) with non-slice selective inversion pulse performed before and after immersion in a gadodiamide saline solution for determination of the gadodiamide partition coefficient. T1 values were calculated from the inversion recovery signal curves. The same samples were fixed in formalin, and the collagen volume fraction was determined by the picrosirius red method using a semi-automated, polarized, digital microscopy system. […] Moreover, there was a significant positive correlation between the two methods, across all three histological categories of myocardial fibrosis (r=0.73; p=0.017). Thus, these findings indicate an expanded potential for contrast enhanced MRI as a novel, non-invasive alternative to histological evaluation, for the quantification of both interstitial and replacement myocardial fibrosis.
In accordance with an exemplary embodiment as outlined briefly above, eight samples of myocardium were obtained from deceased patients. Each sample of ventricular myocardium was 1 to 2 cm in thickness, and cut at the mid-level of the ventricular septum to include left and right ventricular free walls. All samples were stored at −80° C. until time of analysis.
A pre-contrast MRI was performed approximately 10-12 hours after thawing each sample. […] The longitudinal relaxation time T1 of myocardial tissue and saline was measured with a spin-echo MRI pulse sequence with non-slice-selective inversion pulse, and for 12-15 inversion delays (inversion times in the range from T1=50 to 2000 ms). […]
After the first MRI scan, the sample was incubated at 3-4° C. in a gadodiamide—saline solution for 24 hours (initial gadodiamide concentration in saline before immersion of tissue slice was ˜3 mM; saline R1 at 3 Tesla after 24 hours incubation: 3.9±0.3 s^−1). […] The effects of duration of thawing were also evaluated. […] Accordingly, these two sets of samples with different durations of thawing were analyzed separately. […]

The conditions of data set [2]: at 37° C.; cited from earlier work.

Turning to `CNC(=O)CN(CCN(CCN(CC(=O)[O-])CC(=O)NC)CC(=O)[O-])CC(=O)[O-].[Gd+3]` [gadodiamide], the figures for the “mean gadodiamide distribution volume (with 95% confidence interval)” value in data set [1] (interstitial fibrosis myocardium), in data set [1] (normal myocardium) and in data set [1] (replacement fibrosis myocardium) were 0.43+/−0.22, 0.17+/−0.05 and 0.46+/−0.05, respectively. For the same compound, in data set [2], the osmolality is 789 mOsmol/kg water.
